Reference: PMC3933301 (Journal of medicinal chemistry, 2013)
In brackets after ≈: the same amount, converted by molar mass. Entries after “also recorded” stand apart in the source; their conditions may differ. Read-outs that look alike come from different tables or passages of the source.

Tests used:
non-replicating Mtb = conditions: grown under low oxygen conditions; cited from earlier work
Mtb H37Rv [1] = assay: Microplate Alamar Blue Assay; assay type: cell-based, Mycobacterium tuberculosis
Mtb [2] = conditions: cited from earlier work
Mtb H37Rv [3] = conditions: early leads of previous study, Figure 1; cited from earlier work
Mtb [4] = conditions: standard acute infection model, immune incompetent GKO mice; cited from earlier work
Mtb FtsZ [5] = biological target: T1, Mtb FtsZ (Mycobacterium tuberculosis, UniProt P9WN95); assay type: biochemical; conditions: for TEM: effect on GTP-initiated FtsZ polymerization: FtsZ 5 µM, GTP 25 µM
Mtb FtsZ [6] = biological target: T1, Mtb FtsZ; assay: Mtb-FtsZ polymerization inhibitory assay; assay type: biochemical; conditions: FtsZ 15 µM, GTP 50 µM, 25 °C
Cytotoxicity assay = assay type: cell-based; conditions: Cercopithecus aethiops (African green monkey)

T1 sequence (P9WN95 whole entry): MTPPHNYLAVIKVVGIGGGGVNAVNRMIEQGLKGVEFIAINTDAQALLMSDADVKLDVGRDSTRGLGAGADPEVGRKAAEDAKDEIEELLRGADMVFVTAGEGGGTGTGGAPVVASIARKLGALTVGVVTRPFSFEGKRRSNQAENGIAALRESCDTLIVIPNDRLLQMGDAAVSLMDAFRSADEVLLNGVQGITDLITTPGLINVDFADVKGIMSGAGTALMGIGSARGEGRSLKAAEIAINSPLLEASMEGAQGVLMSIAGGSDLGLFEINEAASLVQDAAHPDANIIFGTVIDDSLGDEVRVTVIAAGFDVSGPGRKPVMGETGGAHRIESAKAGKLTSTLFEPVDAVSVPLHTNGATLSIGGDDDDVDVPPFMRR

## CCCCOC(=O)Nc1cc2nc(C3CCCCC3)[nH]c2cc1N(CC)CC [Compound 1]
non-replicating Mtb
  Activity against non-replicating Mtb: active
Mtb H37Rv [1]; Mycobacterium tuberculosis, H37RV, read-out: Mtb H37Rv MIC
  MIC: 0.63 µg/mL (≈ 1.63 µM)
Mtb [2]
  Bactericidal activity: bactericidal
Mtb H37Rv [3]
  MIC of early lead compounds: 0.63 µg/mL
Mtb [4]
  Efficacy in vivo: good efficacy

## CCCCOC(=O)Nc1cc2nc(C3CCCCC3)[nH]c2cc1N1CCCC1 [Compound 2]
non-replicating Mtb
  Activity against non-replicating Mtb: active
Mtb [2]
  Bactericidal activity: bactericidal

## CCCCOC(=O)Nc1cc2nc(C3CCCCC3)[nH]c2cc1N(C)C [Compound 5f, 5-Butyloxycarbonylamino-2-cyclohexyl-6-N,N-dimethylamino-1H-benzo[d]imidazole]
Mtb H37Rv [1]
  Potency relative to 1 (Mtb H37Rv MIC): 11 times
Mtb FtsZ [5]; 5f 40 µM or 80 µM added after polymerization with GTP 25 µM
  TEM: effect on preformed FtsZ polymers: capable of disrupting the formed FtsZ polymers and aggregates; also recorded: effectively disassembled
Mtb FtsZ [5]; 5f 40 µM
  TEM: effect on GTP-initiated FtsZ polymerization: reduction in the density and population of FtsZ polymers, protofilaments and aggregates
Mtb FtsZ [5]; 5f 80 µM
  TEM: effect on GTP-initiated FtsZ polymerization: more apparent
Mtb FtsZ [6]
  Inhibition of Mtb FtsZ polymerization (light scattering): inhibit the assembly of Mtb FtsZ in a dose dependent manner; also recorded: effective dose-dependent inhibition

## CCN(CC)c1cc2[nH]c(C3CCCCC3)nc2cc1NC(=O)OCC(F)(F)F [Compound 5n, 2-Cyclohexyl-6-N,N-diethylamino-5-trifluoroethoxycarbonylamino-1H-benzo[d]imidazole]
Cytotoxicity assay
  IC50: > 100 µg/mL

## O=C(Nc1cc2nc(C3CCCCC3)[nH]c2cc1N1CCCC1)OCC(F)(F)F [Compound 5o, 2-Cyclohexyl-5-trifluoroethoxycarbonylamino-6-prrolidinyl-1H-benzo[d]imidazole]
Cytotoxicity assay
  IC50: > 100 µg/mL

## CN(C)c1cc2[nH]c(C3CCCCC3)nc2cc1NC(=O)OCC(F)(F)F [Compound 5p, 2-Cyclohexyl-5-trifluoroethoxycarbonylamino-6-N,N-dimethylamino-1H-benzo[d]imidazole]
Cytotoxicity assay
  IC50: > 100 µg/mL
Mtb FtsZ [6]
  Inhibition of Mtb FtsZ polymerization (light scattering): inhibit the assembly of Mtb FtsZ in a dose dependent manner; also recorded: effective dose-dependent inhibition

## CCc1ccc(C(=O)Nc2cc3nc(C4CCCCC4)[nH]c3cc2N(C)C)cc1 [Compound 7c-6, 2-Cyclohexyl-5-(4-ethylbenzamido)-6-N,N-dimethylamino-1H-benzo[d]imidazole]
Mtb FtsZ [6]
  Inhibition of Mtb FtsZ polymerization (light scattering): inhibit the assembly of Mtb FtsZ in a dose dependent manner; also recorded: effective dose-dependent inhibition
